Results published in patent US20060135765A1, “Antineoplastic ether lipid compounds” (priority 2003, published 2006).
Values joined by “and” are separate entries in the source; they are usually repeats but may differ in a detail not shown here. Equal values may be shown once. Read-outs that look alike come from different tables or passages of the source. Values belong to the molecule of their own block, whether it stands above or below them.

Experiments:
[1] = test system: DEVDase activity in Jurkat T Cells; experiment: DEVDase activity in Jurkat T cells; format: cell-based
Protocol: Suspension cells were seeded at density 3.2×10^5 cells per mL in RPMI-1640 medium (Bio-Whittaker) supplemented with 10% heat inactivated FBS (Bio-Whittaker). Cells were pre-incubated overnight prior to treatment with the ether lipid compounds of the invention. At treatment time cell density was 5×10^5 cells per mL. Cells were incubated with the ether lipid compounds of the invention for various periods of time, usually 6 hours. Cells were collected, washed with 1×DPBS and resuspended in 110 μl of Buffer A (10 mM HEPES-KOH, pH 7.4, 2 mM EDTA, 0.1% CHAPS, 5 mM DTT, 1:100 dilution of protease inhibitors cocktail (SigmaYDTT and protease inhibitors should be added just before use). After 10 min incubation on ice in order to lyse cells, samples were frozen on dry ice/ethanol and kept at −20° C. until analysis. […] At the time of analysis of DEVDase activity frozen pellets were kept on ice until thawed and after vigorous vortexing samples were centrifuged at 14,000 rpm for 6 min. Supernatant was transferred into another tube and 2 μl, in triplicates, were used for protein measurement using Bradford reagent (Bio-Rad).
Measurement of DEVDase activity was carried out in 100 μl volume, where 10 μg of protein was delivered in 50 μl of Buffer A and 40 μM of substrate Ac-DEVD-AMC was also delivered in 50 μl of Buffer A. All measurements were done in triplicates. Reaction was carried out for 1 hour and generation of fluorescent product of reaction (aminomethylcoumarin) was measured by reading fluorescence at 1em 460 nm (1ex 360 nm). Changes in DEVDase activity were calculated after subtraction of background fluorescence of substrate incubated without proteins, and were expressed as percent of control (DEVDase activity in untreated cells). Average of DEVDase activity, calculated from few independent experiments, was used to calculate percent of L-ether lipid-induced DEVDase activity.

RPMI-8226 = experiment: NCI screen, RPMI-8226; format: cell-based, human; settings: leukemia panel
Protocol: (§1) Candidates deemed suitable for in vivo testing were then synthesized in large scale quantities and some of this material was sent to the NCI's Developmental Therapeutics Program for a battery of growth inhibitory studies against various human tumor cell lines (60 cell lines, 9 different panels). The remainder of the material was used to assess in vivo efficacy using murine tumor models. Additionally, studies were conducted on the lead candidates to discern mechanism of action with particular emphasis on these agents apoptotic ability as measured by caspase 3 activity. The details (materials and methods) for these various assays are described further in the following discussion.
(§2) Ten compounds were also sent to NCT's Drug Discovery Program for screening against numerous human tumor cell lines (9 panels total: renal ovarian, colon, CNS, non-small cell lung, leukemia, breast, melanoma, and prostate). The data are shown in FIGS. 2a-i which also include data regarding D- and L-ET-18-OCH3 (listed as L-EL and D-EL in the figures).

K-562 = experiment: NCI screen, K-562; format: cell-based, human; settings: leukemia panel
Protocol: as §1, §2

WI38 = experiment: In vitro growth inhibition (SRB), WI-38 normal fibroblasts; format: cell-based, human; settings: WI38 normal cell line; 3 days
Excerpt: (§3) III. In Vitro Growth Inhibition (GI50) A. Cell line maintenance The following cell lines were selected from the cell bank for screening and GI50 studies: MCF-7: human breast tumor, MCF-7/ADR: MCF-7 adriamycin resistant subline, HT-29: human colon carcinoma, A-549: human non-small cell lung cancer, NIH-3T3: mouse Swiss embryo fibroblast and WI-38: human lung fibroblast, SKMEL-28: human melanoma, Lewis Lung: mouse lung carcinoma, DU-145: prostate carcinoma, B16F10: mouse melanoma, L1210: murine lymphocytic leukemia, P-388: murine leukemia, U-937: human histolytic lymphoma. Except HT-29, WI-38, NIH-3T3 and Lewis Lung which were obtained from the American Type Culture Collection (Rockville, Md.) all the other cell lines were obtained from National Cancer Institute—Frederick Research Facility (Frederick, Md.). […]
(§4) The test compounds were made in-house and the compounds were dissolved PBS or saline at a stock concentration of approximately 20 mM, which is 400 times the desired final maximum test concentration. […] After 3 days of incubation, cell growth was determined.
The SRB assay was performed as described by Monks, A., Scudiero, D., Skehan, P., Shoemaker, R., Paull, K., Vistica, D., Hose, C., Langley, J., Cronise, P., and Vaigro-Wolff, A. Feasibility of a high-flux anticancer drug screen using a diverse panel of cultured human tumor cell lines. […] Bound SRB was solubilized with Tris buffer (10 mM), and the ODs were read using an automated plate reader (Bio-Rad, Model 3550-UV) at 490 nm. Background values were subtracted from the test data, and the data was calculated as a % of control. […] Percentage growth was calculated as described by Peters, A. C, Ahmad, L, Janoff, A. S., Pushkareva, M. Y., and Mayhew, E. Growth Inhibitory efects of liposome-associated 1-o-octadecyl-2-o-metlryl-sn-glycero-3-phosphocholine. […]

[2] = test system: platelets in dog whole blood; experiment: Platelet aggregation in dog whole blood (whole blood aggregometer)
Protocol: Briefly, whole citrated blood is diluted 1:2 with sterile saline and placed in a warm chamber with a mini stir bar. An electronic probe, measuring electrical resistance, is inserted in the sample. The aggregometer is calibrated and the baseline is observed to detect any spontaneous aggregation. The test sample is added and allowed to run for at least 6 minutes. If the sample is an agonist the platelets will start to aggregate and stick to the electronic probe causing resistance across the electrodes to increase. This resistance, in ohms, is measured 6 minutes post addition of sample. The test samples are run at 25, 100, 200, 400 and 800 uM and compared to 100 uM L-ET-18-OCH3.
Collection of Blood Sample for in vitro Platelet Aggregation Testing: Venous blood is collected in 4.5 mL Vacutainer tubes containing 0.129 M sodium citrate using a 21G needle or larger. Blood is immediately mixed by gentle inversion 15-20 times and kept at room temperature. Dilution ratio is 1 to 9 (3.8% citrate solution:blood). One (2.0 mL) Vacutainer tube containing EDTA is also collected for platelet counts. Complete blood counts (CBC) are measured on the CDC Technologies Hemavet 1500 to ensure that the test subject's platelets are within normal range. Any vials of hemolytic blood or blood containing any clots should be discarded. Platelet aggregation testing must be completed within 3 hours of blood collection. After this time the ability of platelets to aggregate decreases.
Cloudy solutions were warmed to 50° C. to dissolve and particles. Dilutions were prepared in PBS or saline at 40× concentration. (25 uL test sample are added to 1000 uL diluted blood (1:40)).
Procedure for in vitro Platelet Aggregation Test using CH NO-LOG Aggregometer Model 560-CA: The following protocol was used:

MCF7/ADR = experiment: In vitro growth inhibition (SRB), MCF7/ADR; format: cell-based, human; settings: MCF7/ADR tumor cell line; 3 days
Excerpt: as §3, with “lymphoma.” for “lymphoma. Except HT-29, WI-38, NIH-3T3 and Lewis Lung which were obtained from the American Type Culture Collection (Rockville, Md.) all the other cell lines were obtained from National Cancer Institute—Frederick Research Facility (Frederick, Md.).”
as §4
(§5) The SRB assay was performed as described by Monks, A., Scudiero, D., Skehan, P., Shoemaker, R., Paull, K., Vistica, D., Hose, C., Langley, J., Cronise, P., and Vaigro-Wolff, A. Feasibility of a high-flux anticancer drug screen using a diverse panel of cultured human tumor cell lines. […] Bound SRB was solubilized with Tris buffer (10 mM), and the ODs were read using an automated plate reader (Bio-Rad, Model 3550-UV) at 490 nm. Background values were subtracted from the test data, and the data was calculated as a % of control. […]

NIH-3T3 = experiment: In vitro growth inhibition (SRB), NIH-3T3 normal fibroblasts; format: cell-based, mouse; settings: NIH-3T3 normal cell line; 3 days
Excerpt: as §3, with “lymphoma.” for “lymphoma. Except HT-29, WI-38, NIH-3T3 and Lewis Lung which were obtained from the American Type Culture Collection (Rockville, Md.) all the other cell lines were obtained from National Cancer Institute—Frederick Research Facility (Frederick, Md.).”
as §4, §5

MCF7 = experiment: In vitro growth inhibition (SRB), MCF7; format: cell-based, human; settings: MCF7 tumor cell line; 3 days
Excerpt: as §3, with “lymphoma.” for “lymphoma. Except HT-29, WI-38, NIH-3T3 and Lewis Lung which were obtained from the American Type Culture Collection (Rockville, Md.) all the other cell lines were obtained from National Cancer Institute—Frederick Research Facility (Frederick, Md.).”
as §4, §5

Whole Human Blood = experiment: Hemolysis assay with whole human blood; format: cell-based
Protocol: Venous blood was collected in 10 mL Vacutainer tubes containing EDTA using a 21G needle or larger.
stock solutions of 20 mM test sample in phosphate buffered saline (PBS) were prepared as follows:
Then 270 uL of whole blood was aliquotted in duplicate mini test tubes using positive displacement pipet. Next, 30 uL of each working stock solution, in duplicate, was added to the whole blood. Next, 30 uL of PBS was added for background control. The samples were capped or sealed with Parafilm and gently mixed. The blood was incubated at 37° C. in gentle rotating water bath for 30 minutes. Final concentration of test sample was 10% of working stock solution.
Total hemolysis samples of 1% and 10% whole blood samples in deionized water were prepared as follows: 1:100=10 uL whole blood+990 uL deionized water 1:10=100 uL whole blood+900 uL deionized water
The samples were freeze thawed 3× in liquid nitrogen then water bath. The samples were then centrifuged 10 minutes at 1500 RPM. Next, 100 uL of supernatant was transferred to a cuvette and […] deionized water was added. The absorbance was read at 550 nm vs. water blank.
H10 and H50 were calculated by graphing Percent Total Hemolysis vs. Test Sample Concentration. The Percent Total Hemolysis=(average o.d of test sample)/(average o.d. of total hemolysis sample)×100

A549 = experiment: In vitro growth inhibition (SRB), A549; format: cell-based, human; settings: A549 tumor cell line; 3 days
Excerpt: as §3, with “lymphoma.” for “lymphoma. Except HT-29, WI-38, NIH-3T3 and Lewis Lung which were obtained from the American Type Culture Collection (Rockville, Md.) all the other cell lines were obtained from National Cancer Institute—Frederick Research Facility (Frederick, Md.).”
as §4, §5

Washed Human RBCs = experiment: Hemolysis assay with washed human red blood cells; format: cell-based
Protocol: Venous blood was collected in 10 mL Vacutainer tubes containing EDTA using a 21G needle or larger. […] The blood was transferred from 1 EDTA tube to a 50 mL conical tissue culture tube and the volume was brought up to 50 mL with PBS.
The blood was centrifuged for 10 minutes at 1500 RPM. The supernatant was removed and the blood was resuspended up to 50 mL with PBS. Next the blood was centrifuged for 10 minutes at 1500 RPM.
The supernatant was removed, and 2.0 mL of packed red blood cells was carefully transferred, using positive displacement pipet, into a fresh conical tissue culture tube. Next, 48 mL PBS was added to achieve a 4% washed RBC solution.
Next, 25, 50, 100 and 200 uM stock solutions of test sample in phosphate buffered saline (PBS) as follows:
Next, 0.5 mL of 4% washed RBC was added to 0.5 mL test sample dilutions (in duplicate). The final concentration of test sample was 50% of working stock solution.
The samples were capped or sealed with Parafilm and the samples were gently mixed. The blood was incubated at 37° C. in gentle rotating water bath for 30 minutes. The samples were centrifuged for 10 minutes at 1500 RPM. Next, 200 uL of supernatant was transferred to a cuvette and 1 mL deionized water was added. Absorbance was measured at 550 nm vs. a water blank. Next, H10 and H50 were determined by graphing Absorbance vs. Test Sample Concentration.

HT29 = experiment: In vitro growth inhibition (SRB), HT29; format: cell-based, human; settings: HT29 tumor cell line; 3 days
Excerpt: as §3, with “lymphoma.” for “lymphoma. Except HT-29, WI-38, NIH-3T3 and Lewis Lung which were obtained from the American Type Culture Collection (Rockville, Md.) all the other cell lines were obtained from National Cancer Institute—Frederick Research Facility (Frederick, Md.).”
as §4, §5

[3] = test system: human umbilical vein endothelial cell (HUVEC) line; experiment: In vitro growth inhibition, HUVEC; format: cell-based
[4] = concentration producing 10% hemolysis
[5] = concentration producing 50% hemolysis

SMILES: CCCCCCCCCCCCCCCCCCOCC(COP(=O)([O-])OCC[N+](C)(C)C)OC [D-ET18OCH3, 1-O-octadecyl-2-O-methyl-glycerophosphocholine]
% L-ET18OCH3 (DEVDase, 6 hrs) ([1]; [ether lipid] 10 μM): 79.3 ± 9.7 % L-ET18OCH3
% L-ET18OCH3 (DEVDase, 6 hrs) ([1]; [ether lipid] 20 μM): 89.2 ± 12.2 % L-ET18OCH3
% L-ET18OCH3 (DEVDase, 6 hrs) ([1]; [ether lipid] 30 μM): 92.1 ± 11.8 % L-ET18OCH3
activity against RPMI-8226 (in words) (RPMI-8226): extremely poor activity
activity against K-562 (in words) (K-562): extremely poor activity
GI50 (WI38): 10 to 13 µM

platelet aggregation response (in words) [2]: no aggregation was noted
Relative Platelet Aggregation (Ohms) ([2]; 25 μM): 0 Ohms
Relative Platelet Aggregation (Ohms) ([2]; 100 μM): 0 Ohms
Relative Platelet Aggregation (Ohms) ([2]; 200 μM): 0 Ohms
Relative Platelet Aggregation (Ohms) ([2]; 400 μM): 0 Ohms
Relative Platelet Aggregation (Ohms) ([2]; 800 μM): 0 Ohms
GI50 (MCF7/ADR): > 40 µM
GI50 (MCF7): 34.8 µM
GI50 (A549): 7.2 µM
GI50 (HT29): 4.8 µM
SMILES: CCCCCCCCCCCCCCCCCCOCC(CCP(=O)([O-])OCCC[N+](C)(C)C)OC [2(S), 3′-Trimethylaminopropyl-1-O-octadecyl-2-O-methylbutane-4-phospbonate]
% L-ET18OCH3 (DEVDase, 6 hrs) ([1]; [ether lipid] 10 μM): 57.2 ± 8.4 % L-ET18OCH3
% L-ET18OCH3 (DEVDase, 6 hrs) ([1]; [ether lipid] 20 μM): 70.6 ± 10.8 % L-ET18OCH3
% L-ET18OCH3 (DEVDase, 6 hrs) ([1]; [ether lipid] 30 μM): 76.8 ± 11.1 % L-ET18OCH3
platelet aggregation response (in words) ([2]; listed as 2): did not evoke a platelet aggregation response
GI50 (NIH-3T3): 33.5 µM and 33.6 µM
H10 (Whole Human Blood; [4]): 400 µM
H50 (Whole Human Blood; [5]): >2000 µM
H10 (Washed Human RBCs; [4]): 14 µM and 8 µM
H50 (Washed Human RBCs; [5]): 21 µM and 11 µM
GI50 (WI38): < 4 µM

SMILES: CCCCCCCCCCCCCCCCCCOCC(COP(=O)([O-])OCC[N+](C)(C)C)OC [L-ET18OCH3, 1-O-octadecyl-2-O-methyl-glycerophosphocholine]
% L-ET18OCH3 (DEVDase, 6 hrs) ([1]; [ether lipid] 10 μM): 100 ± 8.8 % L-ET18OCH3
% L-ET18OCH3 (DEVDase, 6 hrs) ([1]; [ether lipid] 20 μM): 100 ± 10.4 % L-ET18OCH3
% L-ET18OCH3 (DEVDase, 6 hrs) ([1]; [ether lipid] 30 μM): 100 ± 9.3 % L-ET18OCH3
GI50 [3]: 1200 nM
GI50 (WI38): 10 to 12 µM
